Data on eleven compounds can be found in ChEMBL document CHEMBL6096654, “Allosteric inhibition of PTP1B by bromocatechol-chalcone derivatives” (Eur J Med Chem, 2025).

The structures appear in SMILES notation.

Assay [1] concerns the target T1, Tyrosine-protein phosphatase non-receptor type 11 (Homo sapiens, UniProt Q06124).
T1 sequence (Q06124 whole entry): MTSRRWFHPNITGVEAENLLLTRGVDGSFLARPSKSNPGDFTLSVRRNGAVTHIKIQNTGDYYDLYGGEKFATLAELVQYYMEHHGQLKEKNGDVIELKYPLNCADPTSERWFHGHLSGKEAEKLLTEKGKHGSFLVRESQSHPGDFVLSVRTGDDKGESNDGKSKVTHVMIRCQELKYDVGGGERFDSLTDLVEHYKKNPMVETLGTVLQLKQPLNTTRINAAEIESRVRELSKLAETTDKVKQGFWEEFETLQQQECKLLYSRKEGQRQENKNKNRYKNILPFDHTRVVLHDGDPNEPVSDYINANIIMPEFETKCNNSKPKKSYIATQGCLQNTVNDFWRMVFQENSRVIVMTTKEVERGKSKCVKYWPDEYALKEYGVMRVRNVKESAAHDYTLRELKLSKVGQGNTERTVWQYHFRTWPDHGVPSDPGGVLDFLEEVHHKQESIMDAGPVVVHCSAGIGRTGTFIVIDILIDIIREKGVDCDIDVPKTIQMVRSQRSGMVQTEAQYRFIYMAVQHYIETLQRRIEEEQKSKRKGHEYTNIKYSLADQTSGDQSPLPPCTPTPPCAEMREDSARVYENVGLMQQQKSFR
Briefly: Inhibition of SHP2 (unknown origin) using pNPP as substrate incubated for 30 mins by spectrophotometry.

Assay [2] addresses T2, Tyrosine-protein phosphatase non-receptor type 2 (Homo sapiens, UniProt P17706).
T2 sequence (P17706 whole entry): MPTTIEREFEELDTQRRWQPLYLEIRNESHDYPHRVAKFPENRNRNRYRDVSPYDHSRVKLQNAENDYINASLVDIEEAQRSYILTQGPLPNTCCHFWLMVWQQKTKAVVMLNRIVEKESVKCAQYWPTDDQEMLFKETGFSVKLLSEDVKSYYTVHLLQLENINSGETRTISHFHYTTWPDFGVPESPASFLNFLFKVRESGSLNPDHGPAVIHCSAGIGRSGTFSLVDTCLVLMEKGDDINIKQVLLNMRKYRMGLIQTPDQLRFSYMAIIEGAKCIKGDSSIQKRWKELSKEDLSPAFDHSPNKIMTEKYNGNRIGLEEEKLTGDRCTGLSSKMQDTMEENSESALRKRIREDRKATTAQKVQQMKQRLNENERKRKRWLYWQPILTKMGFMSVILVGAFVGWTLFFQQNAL
Briefly: Inhibition of TCPTP (unknown origin) using pNPP as substrate incubated for 30 mins by spectrophotometry.

The target in assay [3] is T3, Tyrosine-protein phosphatase non-receptor type 1 (Homo sapiens, UniProt P18031).
T3 sequence (P18031 whole entry): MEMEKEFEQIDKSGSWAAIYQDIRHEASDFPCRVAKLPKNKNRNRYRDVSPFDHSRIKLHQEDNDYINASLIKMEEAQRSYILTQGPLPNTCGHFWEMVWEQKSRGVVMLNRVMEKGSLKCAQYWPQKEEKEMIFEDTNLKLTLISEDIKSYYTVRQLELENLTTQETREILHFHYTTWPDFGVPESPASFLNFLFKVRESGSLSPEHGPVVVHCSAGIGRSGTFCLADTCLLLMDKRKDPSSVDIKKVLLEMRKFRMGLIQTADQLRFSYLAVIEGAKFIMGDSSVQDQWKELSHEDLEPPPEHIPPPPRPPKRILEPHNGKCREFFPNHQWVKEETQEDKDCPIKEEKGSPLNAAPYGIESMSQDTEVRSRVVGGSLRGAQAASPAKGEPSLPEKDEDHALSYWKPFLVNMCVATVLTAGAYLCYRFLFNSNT
Briefly: Allosteric inhibition of PTP1B (unknown origin) using pNPP as substrate incubated for 30 mins by spectrophotometry.

Assay [4] can be described thus: Inhibition of PTP1B N193A/K197A mutant (unknown origin) using pNPP as substrate incubated for 30 mins by spectrophotometry. More on the design: species or system Homo sapiens.

Turning to `COc1ccc(C(=O)/C=C/c2cc(O)c(O)c(Br)c2Br)cc1Br`, the IC50 in assay [1] was over 20 µM; in assay [2], 3.74 µM; in assay [3] it was 1.43 µM; in assay [4] it was 9.11 µM.

Consider `O=C(/C=C/c1cc(O)c(O)c(Br)c1Br)c1cccc(Cl)c1`, for which the IC50 in assay [1] was over 20 µM; in assay [2] it was 8.97 µM; in assay [3], 2.59 µM; in assay [4], 12.7 µM.

Turning to `CCOc1ccc(C(=O)/C=C/c2cc(O)c(O)c(Br)c2Br)cc1`, the IC50 in assay [1] was over 20 µM; in assay [2], 17.3 µM; in assay [3], 3.25 µM; in assay [4] it was 9.18 µM.

`O=C(/C=C/c1cc(O)c(O)c(Br)c1Br)c1ccc(Cl)cc1`: the IC50 is over 20 µM in assay [1], 9.7 µM in assay [2], 2.15 µM in assay [3] and 12.6 µM in assay [4].

On to `O=C(/C=C/c1cc(O)c(O)c(Br)c1Br)c1cccc(C(F)(F)F)c1`, for which the IC50 in assay [1] is over 20 µM; in assay [2], 13.6 µM; in assay [3] it was 3.59 µM; in assay [4], 15.7 µM.

With `Cc1ccc(C(=O)/C=C/c2cc(O)c(O)c(Br)c2Br)cc1`, the IC50 is over 20 µM in assay [1], 10.3 µM in assay [2], 2 µM in assay [3] and 10.2 µM in assay [4].

As to `O=C(/C=C/c1cc(O)c(O)c(Br)c1)c1cc(Br)c(O)c(Br)c1`, the IC50 was over 20 µM in assay [1], 15 µM in assay [2], 2.54 µM in assay [3] and 12.6 µM in assay [4].

Regarding `O=C(/C=C/c1cc(O)c(O)c(Br)c1Br)c1ccccc1Cl`, the IC50 was over 20 µM in assay [1], 5.74 µM in assay [2], 2.17 µM in assay [3] and 10.5 µM in assay [4].

As to `Cc1ccccc1C(=O)/C=C/c1cc(O)c(O)c(Br)c1Br`, the IC50 in assay [1] was over 20 µM; in assay [2] it was 9.4 µM; in assay [3], 1.71 µM; in assay [4] it was 8.01 µM.

For `COc1ccc(C(=O)/C=C/c2cc(O)c(O)c(Br)c2)cc1Br`, the IC50 in assay [1] is over 20 µM; in assay [2] it was 13.4 µM; in assay [3], 2.45 µM; in assay [4] it was 9.07 µM.

As to `O=C(/C=C/c1cc(O)c(O)c(Br)c1Br)c1ccc(Cl)c(Cl)c1`, the IC50 is over 20 µM in assay [1], 16 µM in assay [2], 3.02 µM in assay [3] and 11.4 µM in assay [4].
